Results published in patent publication US20230019491A1, “PYRIMIDINE TBK/IKKe INHIBITOR COMPOUNDS AND USES THEREOF” (Merck Patent GmbH, priority 2017, published 2023).

Assays:
TBK1 = biological target: T1, TBK1 (Homo sapiens, UniProt Q9UHD2); assay: TBK biochemical assay; conditions: 10 point 1:4 dose response, 30 uM top concentration, 90 min at 25° C., LabChip EZ Reader II; read-out: TBK1_IC50
T1 sequence (Q9UHD2 1-729): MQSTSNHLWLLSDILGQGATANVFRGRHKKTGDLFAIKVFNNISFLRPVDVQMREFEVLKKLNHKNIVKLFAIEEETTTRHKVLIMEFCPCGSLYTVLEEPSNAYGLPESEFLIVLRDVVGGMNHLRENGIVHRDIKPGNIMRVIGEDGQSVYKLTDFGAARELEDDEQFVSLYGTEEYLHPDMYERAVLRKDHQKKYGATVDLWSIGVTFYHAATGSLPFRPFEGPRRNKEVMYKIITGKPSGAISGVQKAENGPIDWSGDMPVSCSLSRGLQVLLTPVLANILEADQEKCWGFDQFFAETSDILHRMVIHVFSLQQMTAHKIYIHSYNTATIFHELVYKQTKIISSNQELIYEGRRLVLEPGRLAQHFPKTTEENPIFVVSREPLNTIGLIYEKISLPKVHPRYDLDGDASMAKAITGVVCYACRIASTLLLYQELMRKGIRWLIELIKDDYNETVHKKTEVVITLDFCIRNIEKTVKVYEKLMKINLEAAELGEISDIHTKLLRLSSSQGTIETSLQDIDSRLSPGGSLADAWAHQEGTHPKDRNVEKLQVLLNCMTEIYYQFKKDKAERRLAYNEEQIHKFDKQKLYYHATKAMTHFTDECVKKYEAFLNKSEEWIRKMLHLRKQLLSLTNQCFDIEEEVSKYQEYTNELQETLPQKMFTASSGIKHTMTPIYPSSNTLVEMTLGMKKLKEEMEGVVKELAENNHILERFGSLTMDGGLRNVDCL
Procedure, shortened: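 Substrate and product were separated and quantified by microfluidic mobility-shift read (LabChip). 10 uM staurosporine served as the full-inhibition control, and the reference compound was tested from 1 uM final.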

IKKε = biological target: T2, IKKε (Homo sapiens, UniProt Q14164); assay: IKKε biochemical assay; conditions: 10 point 1:4 dose response, 30 uM top concentration, 90 min at 25° C., LabChip EZ Reader II; read-out: IKKε_IC50
T2 sequence (Q14164 1-716): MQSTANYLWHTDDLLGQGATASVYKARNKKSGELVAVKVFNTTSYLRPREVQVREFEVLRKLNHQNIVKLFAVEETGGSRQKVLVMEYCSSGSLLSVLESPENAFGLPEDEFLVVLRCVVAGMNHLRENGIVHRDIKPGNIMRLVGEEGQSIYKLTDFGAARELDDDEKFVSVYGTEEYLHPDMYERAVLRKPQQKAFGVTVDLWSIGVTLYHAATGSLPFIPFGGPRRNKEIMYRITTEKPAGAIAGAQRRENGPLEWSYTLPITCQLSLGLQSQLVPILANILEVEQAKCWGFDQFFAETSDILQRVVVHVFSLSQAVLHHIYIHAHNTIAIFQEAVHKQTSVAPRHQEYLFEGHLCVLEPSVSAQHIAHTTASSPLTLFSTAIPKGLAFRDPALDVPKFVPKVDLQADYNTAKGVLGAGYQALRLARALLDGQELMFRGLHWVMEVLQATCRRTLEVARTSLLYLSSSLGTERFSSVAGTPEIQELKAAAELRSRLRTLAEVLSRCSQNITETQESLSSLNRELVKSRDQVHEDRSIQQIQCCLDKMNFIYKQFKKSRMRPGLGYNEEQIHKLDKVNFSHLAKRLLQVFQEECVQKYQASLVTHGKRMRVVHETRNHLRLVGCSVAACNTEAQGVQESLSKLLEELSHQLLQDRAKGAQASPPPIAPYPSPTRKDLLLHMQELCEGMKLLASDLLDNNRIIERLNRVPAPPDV
Procedure, shortened: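 Compounds in 1% DMSO final were incubated with IKKε enzyme and substrate at 25° C. for 90 min, then stopped. Substrate and product peaks were resolved by LabChip EZ Reader II mobility-shift read-out. Staurosporine at 10 uM final served as the full-inhibition control.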

SMILES	IC50 (TBK1)	IC50 (IKKε)
CN(C)C(=O)c1ccc(Nc2nccc(-c3ccc(OC4CCOCC4)c(C#N)c3)n2)nc1 [Example 22, 6-([4-[3-cyano-4-(oxan-4-yloxy)phenyl]pyrimidin-2-yl]amino)-N,N-dimethylpyridine-3-carboxamide]	100 to 1000 nM	100 to 1000 nM
COc1nc(Nc2nccc(-c3ccc(OC4CCN(C(=O)[C@@H]5CCCO5)CC4(F)F)c(C#N)c3)n2)ccc1N1CCN(C2COC2)CC1 (stereo partly drawn) [Example 254, 2-[3,3-Difluoro-1-((S)-tetrahydro-furan-2-carbonyl)-piperidin-4-yloxy]-5-{2-[6-methoxy-5-(4-oxetan-3-yl-piperazin-1-yl)-pyridin-2-ylamino]-pyrimidin-4-yl}-benzonitrile]	< 100 nM	< 100 nM
C[C@H](O)C(=O)N1CC(Oc2ccc(-c3ccnc(Nc4ccc(N5CCN(C6COC6)CC5)cc4)n3)cc2C#N)C1 [Example 172, 2-([1-[(2S)-2-hydroxypropanoyl]azetidin-3-yl]oxy)-5-[2-([4-[4-(oxetan-3-yl)piperazin-1-yl]phenyl]amino)pyrimidin-4-yl]benzonitrile]	100 to 1000 nM	100 to 1000 nM
COc1nc(Nc2ncc(F)c(-c3ccc(OC4CCOCC4)c(C#N)c3)n2)ccc1N1CCN(C)CC1 [Example 67, 5-{5-Fluoro-2-[6-methoxy-5-(4-methyl-piperazin-1-yl)-pyridin-2-ylamino]-pyrimidin-4-yl}-2-(tetrahydro-pyran-4-yloxy)-benzonitrile]	< 100 nM	< 100 nM
COc1nc(Nc2nccc(-c3ccc(OC4CCNCC4)c(C#N)c3)n2)ccc1C(=O)N(C)C [Example 72, 6-([4-[3-cyano-4-(piperidin-4-yloxy)phenyl]pyrimidin-2-yl]amino)-2-methoxy-N,N-dimethylpyridine-3-carboxamide]	< 100 nM	< 100 nM
C[C@@H](O)C(=O)N1CCC(Oc2ccc(-c3ccnc(Nc4ccc(N5CCOCC5)cc4)n3)cc2C#N)C(F)(F)C1 (stereo partly drawn) [Example 215, 2-([3,3-difluoro-1-[(2R)-2-hydroxypropanoyl]piperidin-4-yl]oxy)-5-(2-[[4-(morpholin-4-yl)phenyl]amino]pyrimidin-4-yl)benzonitrile]	< 100 nM	< 100 nM
C[C@@H](O)C(=O)N1CCC(Oc2ccc(-c3ccnc(Nc4ccc(C5CCN(C6COC6)C5)cc4)n3)cc2C#N)C(F)(F)C1 (stereo partly drawn) [Example 214, 2-([3,3-difluoro-1-[(2R)-2-hydroxypropanoyl]piperidin-4-yl]oxy)-5-[2-([4-[1-(oxetan-3-yl)pyrrolidin-3-yl]phenyl]amino)pyrimidin-4-yl]benzonitrile]	< 100 nM	< 100 nM
COc1nc(Nc2nccc(-c3ccc(OC4CCNCC4(F)F)c(C#N)c3)n2)ccc1N1CCN(C2COC2)CC1 (stereo not drawn) [Example 119]	< 100 nM	< 100 nM
COc1nc(Nc2nccc(-c3ccc(OC4CCNCC4(F)F)c(C#N)c3)n2)ccc1N1CCN(C)CC1 (stereo not drawn) [Example 97, 2-[(3,3-difluoropiperidin-4-yl)oxy]-5-(2-[[6-methoxy-5-(4-methylpiperazin-1-yl)pyridin-2-yl]amino]pyrimidin-4-yl)benzonitrile]	< 100 nM	< 100 nM
COc1nc(Nc2nccc(-c3ccc(OC4CCOCC4)c(C#N)c3)n2)ccc1N1C[C@@H](C)O[C@@H](C)C1 [Example 37, 5-[2-([5-[cis-2,6-dimethylmorpholin-4-yl]-6-methoxypyridin-2-yl]amino)pyrimidin-4-yl]-2-(oxan-4-yloxy)benzonitrile]	< 100 nM	< 100 nM
COc1nc(Nc2nccc(-c3ccc(OC4CN(C)C4)c(C#N)c3)n2)ccc1N1CCN(C)CC1 [Example 86, 5-(2-[[6-methoxy-5-(4-methylpiperazin-1-yl)pyridin-2-yl]amino]pyrimidin-4-yl)-2-[(1-methylazetidin-3-yl)oxy]benzonitrile]	100 to 1000 nM	100 to 1000 nM

Continued, values first:

IC50 (TBK1)	IC50 (IKKε)	SMILES
< 100 nM	100 to 1000 nM	COc1nc(C(=O)N(C)C)ccc1Nc1nccc(-c2ccc(NC3CCOCC3)c(C#N)c2)n1 [Example 62, 5-[(4-[3-cyano-4-[(oxan-4-yl)amino]phenyl]pyrimidin-2-yl)amino]-6-methoxy-N,N-dimethylpyridine-2-carboxamide]
< 100 nM	< 100 nM	N#Cc1cc(-c2ccnc(Nc3ccc(N4CCN(C5COC5)CC4)cn3)n2)ccc1OC1CCOCC1 [Example 165, 5-{2-[5-(4-Oxetan-3-yl-piperazin-1-yl)-pyridin-2-ylamino]-pyrimidin-4-yl}-2-(tetrahydro-pyran-4-yloxy)-benzonitrile]
< 100 nM	< 100 nM	N#Cc1cc(-c2ccnc(Nc3ccccn3)n2)ccc1OC1CCN(C(=O)CO)CC1(F)F (stereo not drawn) [Example 220, 2-[3,3-Difluoro-1-(2-hydroxy-acetyl)-piperidin-4-yloxy]-5-[2-(pyridin-2-ylamino)-pyrimidin-4-yl]-benzonitrile]
< 100 nM	< 100 nM	N#Cc1cc(-c2ccnc(Nc3ccc(N4CCN(C5COC5)CC4)cc3)n2)ccc1OC1COC1 [Example 159, 5-[2-([4-[4-(oxetan-3-yl)piperazin-1-yl]phenyl]amino)pyrimidin-4-yl]-2-(oxetan-3-yloxy)benzonitrile]
< 100 nM	< 100 nM	COc1nc(Nc2nccc(-c3ccc(OC4CCN(C(=O)[C@H](C)O)CC4(F)F)c(C#N)c3)n2)ccc1N1CCN(C2COC2)C[C@H]1C (stereo partly drawn) [Example 132, 2-[3,3-Difluoro-1-((S)-2-hydroxy-propionyl)-piperidin-4-yloxy]-5-{2-[6-methoxy-5-((R)-2-methyl-4-oxetan-3-yl-piperazin-1-yl)-pyridin-2-ylamino]-pyrimidin-4-yl}-benzonitrile]
< 100 nM	< 100 nM	COc1nc(Nc2nccc(-c3ccc(OC4CCOCC4)c(C#N)c3)n2)ccc1C(=O)NC1CCCC1O (stereo not drawn) [Example 9, 6-{4-[3-Cyano-4-(tetrahydro-pyran-4-yloxy)-phenyl]-pyrimidin-2-ylamino}-N-(2-hydroxy-cyclopentyl)-2-methoxy-nicotinamide]
< 100 nM	< 100 nM	COc1nc(Nc2nccc(-c3ccc(OC4CCOCC4)c(C#N)c3)n2)ccc1C(=O)N[C@H]1[C@@H]2C[C@H]1CN(C)C2 [Example 19, 6-([4-[3-cyano-4-(oxan-4-yloxy)phenyl]pyrimidin-2-yl]amino)-2-methoxy-N-[(1R,5S,6R)-3-methyl-3-azabicyclo[3.1.1]heptan-6-yl]pyridine-3-carboxamide]
< 100 nM	< 100 nM	COc1cc(Nc2nccc(-c3ccc(OC4CCN(C(=O)[C@@H](C)O)CC4(F)F)c(C#N)c3)n2)ccc1C1CCN(C2COC2)CC1 (stereo partly drawn) [Example 227, 2-([3,3-difluoro-1-[(2R)-2-hydroxypropanoyl]piperidin-4-yl]oxy)-5-[2-([3-methoxy-4-[1-(oxetan-3-yl)piperidin-4-yl]phenyl]amino)pyrimidin-4-yl]benzonitrile]
< 100 nM	< 100 nM	C[C@H](O)C(=O)N1CC[C@H](Oc2ccc(-c3ccnc(Nc4ccc(N5CCN(C6COC6)CC5)cc4)n3)cc2C#N)C(F)(F)C1 [Example 139, 2-[[(4S)-3,3-difluoro-1-[(2S)-2-hydroxypropanoyl]piperidin-4-yl]oxy]-5-[2-([4-[4-(oxetan-3-yl)piperazin-1-yl]phenyl]amino)pyrimidin-4-yl]benzonitrile]
< 100 nM	< 100 nM	COc1nc(Nc2nccc(-c3ccc(OC4CCOCC4)c(C#N)c3)n2)ccc1N1CCN(CCO)CC1 [Example 167, 5-[2-([5-[4-(2-hydroxyethyl)piperazin-1-yl]-6-methoxypyridin-2-yl]amino)pyrimidin-4-yl]-2-(oxan-4-yloxy)benzonitrile]
